pEC50, pIC50: −log10 of the molar value.
Experiments:
[1] = Intrinsic clearance in pooled mouse liver microsomes; type: in vitro ADME; settings: pH 7.4
HDAC1 = target: T1, HDAC1 (Homo sapiens, UniProt Q13547); assay: HDAC1 assay (Fluor-de-Lys fluorescent deacetylase assay); type: biochemical; settings: read-out: hHDAC IC50
T1 construct: made in house
Procedure, shortened: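 Serially diluted compounds were pre-incubated with purified FLAG-tagged HDAC1 (1-2 nM final; from transfected HeLa cells) or HeLa nuclear extract, then given the Fluor-de-Lys acetyl-lysine substrate/developer; deacetylation read as fluorescence. Reactions were stopped with TSA (3 uM final).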

[2] = tested on: human γ-globin promoter (EGFP reporter) in K562 cells; assay: HbF activation assay on K562 (EGFP/RFP reporter model system for screening of inducers of fetal hemoglobin); type: cell-based; settings: 60 hours
Procedure, shortened: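 K562 cells stably carrying EGFP under the human γ-globin promoter and far-red FP under the β-globin promoter, with the LCR, were seeded at 1000 cells/well. Cells were exposed to compounds (0.25% DMSO final) for 60 h at 37 °C. Fluorescence was read by plate cytometry, normalized to Hoechst nuclei count, which also indicated proliferation or death.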

HDAC in Hela cells = assay: HDAC Hela Cell Based assay
[3] = Intrinsic clearance in pooled rat liver microsomes; type: in vitro ADME; settings: pH 7.4
Description: Assays were performed in presence of 0.5 mg/ml of microsomal protein, with a NADPH-generating system (1 mM NADP, 2.5 mM glucose 6-phosphate and 2 U/ml glucose 6-phosphate dehydrogenase) in 100 mM potassium phosphate buffer containing 3.3 mM MgCl2 (pH 7.4). Tested compounds were stored in 10 mM DMSO solution and incubated at 1 μM final concentration (final DMSO concentration in incubation less than 0.1%). Microsomes and substrates were preincubated at 37° C. for 5 min and then the enzymatic reactions were initiated by the addition of cofactors and incubated at 37° C. for up to 90 min. Incubations were terminated by the addition of an equivalent volume of cold acetonitrile containing I.S. Control incubations, where the substrate was incubated in the same buffer system containing pRLM without the NADPH-generating system, were also run.

[4] = Intrinsic clearance in pooled human liver microsomes; type: in vitro ADME; settings: pH 7.4
human γ-globin gene = settings: transgenic mice; Cao, H Exp. Hematol. 2005; cited from earlier work
[5] = Rat PK studies, oral dose; type: in vivo, Sprague-Dawley rats; settings: male, Sprague-Dawley, plasma, po 10 mg/kg
Description: Rats Male Sprague-Dawley rats (250-350 g) were used for the absorption disposition studies. In each rat an indwelling cannula was implanted in the right jugular vein for blood sampling. The surgery was performed under light anaesthesia (Ketamine-Xilazine (85 mg/kg and 2.5 mg/kg respectively i.m.) one day prior the experiment). During the kinetic study, all animals were housed individually in plastic metabolism cages, and were unrestrained throughout the experiment. Compounds (6 mg/mL) were dissolved in 20% DMSO/60% PEG400/20% water for intravenous administration, and dissolved or suspended in 1% methylcellulose for oral administration (2 mg/ml). After an overnight fast, the rats received an i.v. (via caudal vein) or an oral dose of the compound. Blood samples were collected at different times point after dosing. Plasma was separated immediately after blood sampling by centrifugation, and the plasma samples were kept frozen (−20° C.) until assayed by LC/MS/MS.
Analytical procedures: Plasma samples were extracted using Liquid Handling Robot MultiProbe Packard by protein precipitation with acetonitrile. Then the samples were centrifuged (3000 rpm×15 min at 4° C.) and the supernatant transferred and dried under nitrogen. The samples were reconstituted in water/acetonitrile 90/10 and then injected directly into an HPLC column. Sample analyses were performed using a an API 3000 or/and API 2000 or/and API 4000 Mass Spectrometer interfaced via the Turbo Ion Spray (ESI)/APCI to an LC system consisting of an HTS PAL CTC autosampler and an Agilen HP 1100 Binary Pump. The results are calculated using Analyst Software linear regression with 1/x*x weighting. The Assay Precision was calculated for the Quality Controls by Watson Lims database.
Pharmacokinetic Analysis: The plasma clearance (CLp) of the compounds were calculated (using Watson PK program) as the dose divided by the area under the plasma concentration-time curve from time zero to infinity (AUC0-∞). The apparent half-life was estimated from the slope of the terminal phase of the log plasma concentration-time data. The volume of distribution (Vdss) was determined using the following noncompartmental method: Vdss=(Dose IV×AUMC)/(AUC0-∞)2
where AUMC is the total area under the first moment of the drug concentration time curve from time zero to infinity. Bioavailability was estimated as the AUC0-∞ ratio following oral and intravenous administration, normalized for differences in dose.

[6] = Mouse in vivo pharmacokinetics, oral dose; settings: plasma
Description: Compounds of the invention were evaluated in in vitro and in vivo pharmacokinetic studies.

T1 sequence (Q13547 whole entry): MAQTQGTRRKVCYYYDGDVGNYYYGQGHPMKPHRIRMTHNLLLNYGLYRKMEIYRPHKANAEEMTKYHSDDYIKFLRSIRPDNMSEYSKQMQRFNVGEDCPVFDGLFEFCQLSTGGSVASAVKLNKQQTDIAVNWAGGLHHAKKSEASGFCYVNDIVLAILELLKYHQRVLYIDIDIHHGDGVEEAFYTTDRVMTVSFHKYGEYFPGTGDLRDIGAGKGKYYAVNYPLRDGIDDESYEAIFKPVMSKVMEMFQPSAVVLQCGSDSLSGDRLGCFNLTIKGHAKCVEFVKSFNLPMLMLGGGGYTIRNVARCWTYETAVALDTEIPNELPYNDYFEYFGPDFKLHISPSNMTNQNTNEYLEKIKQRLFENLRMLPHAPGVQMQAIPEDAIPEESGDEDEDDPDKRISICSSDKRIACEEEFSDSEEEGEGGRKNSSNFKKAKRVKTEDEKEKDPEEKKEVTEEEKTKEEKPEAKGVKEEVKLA

Row | SMILES | microsomal CLint at 1 μM [1] | pIC50 (HDAC1) | pEC50 [2] | pIC50 (HDAC in Hela cells) | microsomal CLint at 1 μM [3] | microsomal CLint at 1 μM [4] | increase of human γ/murine α-globin mRNA ratios (human γ-globin gene) | AUC [5] | Cmax [5] | AUC ([6]; po 10 mg/kg) | Cmax ([6]; po 10 mg/kg) | AUC ([6]; po 5 mg/kg) | Cmax ([6]; po 5 mg/kg)
1 | CCC(=O)CCCCC[C@H](NC(=O)C1CN(C)C1)c1ncc(-c2cc3ccccc3[nH]c2=O)o1 [Compound 44, (S)-1-methyl-N-(7-oxo-1-(5-(2-oxo-1,2-dihydroquinolin-3-yl)oxazol-2-yl)nonyl)azetidine-3-carboxamide] | 11 µL/min/mg | > 7.00 | 6.00 to 7.00 | > 7.00 | 17 µL/min/mg | 11 µL/min/mg | – | – | – | – | – | – | –
2 | CCC(=O)NO [propionyl hydroxamate] | – | – | – | – | – | – | 71% | – | – | – | – | – | –
3 | CCC(=O)CCCCC[C@H](NC(=O)C12CCN(CC1)CC2)c1ncc(-c2cc3ccccc3nc2OC)o1 [Compound 41, (S)-N-(1-(5-(2-methoxyquinolin-3-yl)oxazol-2-yl)-7-oxononyl)quinuclidine-4-carboxamide] | – | > 7.00 | < 6.00 | > 7.00 | – | – | – | 10.1 µM·h | 0.47 µM | – | – | – | –
4 | CCCC(=O)NO [butyryl hydroxamate] | – | – | – | – | – | – | 33.9% | – | – | – | – | – | –
5 | CCC(=O)CCCCC[C@H](NC(=O)C1CN(C)C1)c1nnc(-c2cc3ccccc3nc2OC)o1 [Compound 52, (S)-N-(1-(5-(2-methoxyquinolin-3-yl)-1,3,4-oxadiazol-2-yl)-7-oxononyl)-1-methylazetidine-3-carboxamide] | 19 µL/min/mg | > 7.00 | < 6.00 | 6.00 to 7.00 | 30 µL/min/mg | 60 µL/min/mg | – | 5.91 µM·h | 0.58 µM | 1.75 µM·h | 0.63 µM | – | –
6 | CCC(=O)CCCCC[C@@H](NC(=O)C1CN(C)C1)c1ncc(-c2cc3ccccc3nc2OC)o1 [Compound 42, (R)-N-(1-(5-(2-methoxyquinolin-3-yl)oxazol-2-yl)-7-oxononyl)-1-methylazetidine-3-carboxamide] | 15 µL/min/mg | > 7.00 | < 6.00 | 6.00 to 7.00 | 21 µL/min/mg | 3 µL/min/mg | – | – | – | – | – | 5.93 µM·h | 0.67 µM

From patent publication US9371295B2, “Compounds for use in the treatment of disorders that are ameliorated by inhibition of HDAC” (IRBM—Science Park S.p.A., priority 2012, dated 2016)
